From the supplement of paper PMC13380429

What was measured:
Conditions in all cases: 72 h
[1] = system: Calu-3; assay: relative viability EC50 (midpoint between 100% and the lowest measured viability); higher = less toxic
[2] = system: Vero E6; assay: as above
[3] = system: U2OS; assay: as above
[4] = system: HepG2; assay: as above
[5] = system: Caco-2; assay: as above
[6] = system: Calu-3; assay: drug sensitivity score (DSS) for viability; higher = more toxic; extreme values may be limits of the assay
[7] = system: Vero E6; assay: as above
[8] = system: U2OS; assay: as above
[9] = system: HepG2; assay: as above
[10] = system: Caco-2; assay: as above
[11] = system: Calu-3; assay: cell viability relative to DMSO; higher = less toxic
[12] = system: Vero E6; assay: as above
[13] = system: U2OS; assay: as above
[14] = system: HepG2; assay: as above
[15] = system: Caco-2; assay: as above

Compound	relative viability EC50 [1]	relative viability EC50 [2]	relative viability EC50 [3]	relative viability EC50 [4]	relative viability EC50 [5]	drug sensitivity score [6]	drug sensitivity score [7]	drug sensitivity score [8]	drug sensitivity score [9]	drug sensitivity score [10]	cell viability ([11]; 1 nM)	cell viability ([11]; 10 nM)	cell viability ([11]; 100 nM)	cell viability ([11]; 1000 nM)	cell viability ([11]; 10000 nM)	cell viability ([12]; 1 nM)	cell viability ([12]; 10 nM)	cell viability ([12]; 100 nM)	cell viability ([12]; 1000 nM)	cell viability ([12]; 10000 nM)	cell viability ([13]; 1 nM)	cell viability ([13]; 10 nM)	cell viability ([13]; 100 nM)	cell viability ([13]; 1000 nM)	cell viability ([13]; 10000 nM)	cell viability ([14]; 1 nM)	cell viability ([14]; 10 nM)	cell viability ([14]; 100 nM)	cell viability ([14]; 1000 nM)	cell viability ([14]; 10000 nM)	cell viability ([15]; 1 nM)	cell viability ([15]; 10 nM)	cell viability ([15]; 100 nM)	cell viability ([15]; 1000 nM)	cell viability ([15]; 10000 nM)
Cc1cc(C)c2c(c1)[C@@H](N(Cc1cc(C(F)(F)F)cc(C(F)(F)F)c1)c1nnn(C)n1)CCCN2C[C@H]1CC[C@H](C(=O)O)CC1 [evacetrapib]	> 10 µM	> 10 µM	> 10 µM	> 10 µM	> 10 µM	0	0	0	0	0	97%	88.9%	100%	96.9%	89.9%	96.1%	97.3%	95.7%	93.3%	102%	98.1%	100%	97.5%	103%	91.9%	97%	100%	95.6%	99.5%	104%	90.6%	94.9%	108%	99.8%	97.3%
N[C@@H]1CCN(c2cccnc2)C1 [ABT-202]	> 10 µM	> 10 µM	> 10 µM	> 10 µM	> 10 µM	0	0	0	0	0	93.1%	90.3%	99.8%	97.5%	99.3%	102%	97.4%	104%	94.5%	108%	96.1%	98.8%	96.1%	102%	103%	97.8%	99%	104%	105%	109%	101%	102%	96%	95.7%	106%
CC[N+](CC)(CC)CCC(O)(c1ccccc1)C1CCCCC1 (stereo not given) [tridihexethyl]	> 10 µM	> 10 µM	> 10 µM	> 10 µM	> 10 µM	0	0	0	0	0	104%	104%	96.9%	103%	106%	96.4%	93.6%	97.2%	97.6%	103%	101%	94.5%	97.1%	106%	103%	99.8%	108%	92.5%	89%	112%	100%	92.8%	102%	92.7%	110%
CCCCCCCCCCCCCCCCCCCCCCO [docosanol]	> 10 µM	> 10 µM	> 10 µM	> 10 µM	> 10 µM	0	0	0	0.7	0.2	87.6%	97.6%	96.4%	102%	96.5%	108%	98.4%	98.2%	88.4%	104%	92.3%	96.2%	94.6%	98.6%	105%	104%	100%	104%	93.2%	85.1%	95.8%	92.2%	99.5%	116%	82.1%
OCCCNc1ccccc1 [3-anilinopropan-1-ol]	> 10 µM	> 10 µM	> 10 µM	> 10 µM	> 10 µM	0	0	0	0	0	106%	104%	99.6%	97%	115%	100%	96.1%	107%	94.4%	97.9%	99.6%	106%	97.8%	102%	98.7%	103%	101%	95.6%	103%	94.9%	101%	91.8%	93.7%	93.3%	95.3%
COc1ccc([C@@H]2CC(=O)c3c(O)cc(O[C@@H]4O[C@H](CO[C@@H]5O[C@@H](C)[C@H](O)[C@@H](O)[C@H]5O)[C@@H](O)[C@H](O)[C@H]4O)cc3O2)cc1O [hesperidin]	> 10 µM	> 10 µM	> 10 µM	> 10 µM	> 10 µM	0	0	0	0.2	0	89.1%	86.3%	91.6%	97.9%	101%	103%	102%	99%	98.5%	99.8%	97.5%	97.9%	102%	99.7%	104%	99%	109%	99.1%	103%	83.7%	98.3%	103%	97.5%	88.1%	98.9%
O=C(NCc1ccc2c(c1)OCO2)c1c(Cl)cccc1Cl [alda-1]	> 10 µM	> 10 µM	> 10 µM	> 10 µM	> 10 µM	0	0	0	0	0	91.7%	100%	109%	102%	108%	94.2%	105%	98.8%	91.2%	98.3%	103%	99.8%	99%	100%	100%	92%	105%	99.8%	101%	95.9%	93%	91.3%	100%	93.1%	99.1%
CC(C)C(=O)c1ccc(O)c(O)c1 [U-0521]	> 10 µM	> 10 µM	> 10 µM	> 10 µM	> 10 µM	0	0	0	0	0.5	102%	96.9%	102%	94.4%	97.4%	108%	104%	102%	97.6%	92.9%	99.8%	95.4%	100%	97.3%	93.6%	96.3%	77.3%	109%	114%	105%	98.6%	102%	101%	88%	97%
